Reference: US20190374563A1, “TREATMENT OF KLEBSIELLA PNEUMONIAE INFECTIONS WITH ANTIBACTERIAL AMINOGLYCOSIDE COMPOUNDS” (Achaogen, Inc., priority 2009, published 2019)
≈ marks a conversion by molar mass, not a printed value.

Columns and labels:
[1] = tested on: S. aureus ATCC 33591 (MRSA); test: murine neutropenic thigh model; type: in vivo; settings: two highest dosages; MRSA ATCC 33591, challenge 1.2×10^3 CFU; FIG. 5
Experimental: (§1) The in vivo activity of Example 1 in the mouse neutropenic thigh model (Andes and Craig. Antimicrob Agents Chemother. 2002, 46:1665-1670) was determined against seven bacterial strains including susceptible Escherichia coli and Klebsiella pneumoniae; multi-drug resistant (MDR) clinical isolates of E. coli and K. pneumoniae that display resistance to multiple antibiotics (including AGs); MRSA; and two K. pneumoniae carbapenemases (KPC)-expressing strains (see Table 5). For this efficacy model, groups of six CD-1 mice were rendered neutropenic by two intraperitoneal injections of cyclophosphamide. The first injection was 150 mg/kg three days prior to infection (day −4), and the second injection was 100 mg/kg one day prior to infection (day −1). On study day 0, animals were inoculated intramuscularly (0.1 ml) with a known number of colony forming units (CFU) of the specified bacterial strain (ATCC 25922, AECO 1003, ATCC 43816, AKPN 1073, AKPN 1109, ATCC 33591 or ASMA 1030), tailored to the virulence of each strain in the model to maximize bacterial load while avoiding mortality in the untreated control arms. Antibiotics were administered via subcutaneous injection at 2 and 14 hours after bacterial challenge. At 26 hours, infected thigh tissue was harvested, homogenized, and plated to count CFU. […]

seven bacterial strains = test: murine neutropenic thigh model, statements over all strains; type: in vivo
Experimental: (§2) The in vivo activity of Example 1 in the mouse neutropenic thigh model (Andes and Craig. Antimicrob Agents Chemother. 2002, 46:1665-1670) was determined against seven bacterial strains including susceptible Escherichia coli and Klebsiella pneumoniae; multi-drug resistant (MDR) clinical isolates of E. coli and K. pneumoniae that display resistance to multiple antibiotics (including AGs); MRSA; and two K. pneumoniae carbapenemases (KPC)-expressing strains (see Table 5). For this efficacy model, groups of six CD-1 mice were rendered neutropenic by two intraperitoneal injections of cyclophosphamide. The first injection was 150 mg/kg three days prior to infection (day −4), and the second injection was 100 mg/kg one day prior to infection (day −1). On study day 0, animals were inoculated intramuscularly (0.1 ml) with a known number of colony forming units (CFU) of the specified bacterial strain (ATCC 25922, AECO 1003, ATCC 43816, AKPN 1073, AKPN 1109, ATCC 33591 or ASMA 1030), tailored to the virulence of each strain in the model to maximize bacterial load while avoiding mortality in the untreated control arms. Antibiotics were administered via subcutaneous injection at 2 and 14 hours after bacterial challenge. At 26 hours, infected thigh tissue was harvested, homogenized, and plated to count CFU. Untreated control animals were harvested at 2 hours post-infection to assess the initial bacterial load and at 26 hours post-infection to measure growth in the absence of antibiotic treatment.

[2] = tested on: E. coli ATCC 25922 (susceptible); test: murine neutropenic thigh model; type: in vivo
Experimental: as §2

[3] = tested on: K. pneumoniae ATCC 43816 (susceptible); test: murine neutropenic thigh model; type: in vivo
Experimental: as §2

[4] = tested on: K. pneumoniae AKPN 1109 (KPC-expressing clinical isolate); test: murine neutropenic thigh model; type: in vivo; settings: highest test dosage; AKPN 1109, challenge 8.3×10^5 CFU; FIG. 4
Experimental: as §2

[5] = tested on: P. aeruginosa ATCC 27853 (APAE001); test: MIC assay, CLSI broth microdilution; type: cell-based; settings: Pseudomonas aeruginosa; Table 1; APAE001 is ATCC27853; read-out: MIC APAE001
Method in brief: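 MICs were read after 20 hours at 35° C in ambient air, with a final inoculum of 5×10^5 CFU/mL from saline-suspended overnight colonies. Serial two-fold dilutions in Mueller Hinton Broth followed the CLSI reference method (M7-A7), with QC strains E. coli ATCC 25922, P. aeruginosa ATCC 27853 and S. aureus ATCC 29213.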

[6] = tested on: E. coli AECO 1003 (MDR, AG-resistant clinical isolate); test: murine neutropenic thigh model; type: in vivo; settings: highest dosage; AECO 1003, challenge 1.5×10^3 CFU; FIG. 2
Experimental: as §1

[7] = tested on: K. pneumoniae producing KPC (n = 25); test: MIC by microdilution, clinical isolates; type: cell-based; settings: Klebsiella pneumoniae, K. pneumoniae producing KPC (n = 25)
Experimental: (§3) The in vitro activity of representative antibacterial aminoglycoside compounds against a collection of 102 K. pneumoniae clinical isolates collected from January 2006 to October 2007 at the University of Pittsburgh Medical Center, and three Cleveland institutions including University Hospitals Case Medical Center, the Cleveland Clinic, and the Louis Stokes Department of Veterans Affairs Medical Center was analyzed. The 102 K. pneumoniae isolates were selected based on a multidrug-resistant (MDR) phenotype (i.e., resistance to >3 antibiotic classes). Twenty-five isolates were KPC carbapenemase producing (KPC-Kp), and were part of a previous study where the β-lactamase background and clonality were characterized (see Endimiani, A., A. M. Hujer, F. Perez, C. R. Bethel, K. M. Hujer, J. Kroeger, M. Oethinger, D. L. Paterson, M. D. Adams, M. R. Jacobs, D. J. Diekema, G. S. Hall, S. G. Jenkins, L. B. Rice, F. C. Tenover, and R. A. Bonomo. 2009. Characterization of blaKPC-containing Klebsiella pneumoniae isolates detected in different institutions in the Eastern USA. J Antimicrob Chemother 63:427-37).
(§4) Minimum inhibitory concentrations (MICs) were performed by microdilution method using cation-adjusted Mueller-Hinton broth, according to the Clinical and Laboratory Standards Institute (CLSI) criteria (see CLSI. 2006. Methods for dilution antimicrobial susceptibility tests for bacteria that grow aerobically; approved standard-Seventh edition. Clinical and Laboratory Standard Institute, Wayne, Pa. CLSI document M7-A7). These MIC assays were conducted following the same protocol as set forth in Example 110. […] The following ATCC control strains were used: Escherichia coli ATCC 25922, Pseudomonas aeruginosa ATCC 27853, and K. pneumoniae ATCC 700603.

[8] = tested on: multidrug-resistant (MDR) K. pneumoniae isolates (n = 102); test: MIC by microdilution, clinical isolates; type: cell-based
Experimental: as §3, §4

P. aeruginosa ATCC 27853 = test: murine septicemia model of infection; type: in vivo; settings: mice, single SC or IV dose 1 hour after IP challenge, mortality for 7 days; ED50 values are mg/kg
Experimental: (§5) Two models were run on each compound, using E. coli and P. aeruginosa QC bacterial strains. Both studies employed the same design. […] At 1 hour after bacterial challenge, the mice received a single SC or IV dose of vehicle or test substance to assess in vivo anti-infective activity. Mortality was recorded once daily for 7 days after bacterial inoculation.

E. coli ATCC 25922 = test: murine septicemia model of infection; type: in vivo; settings: mice, single SC or IV dose 1 hour after IP challenge, mortality for 7 days; ED50 values are mg/kg
Experimental: as §5

[9] = tested on: K. pneumoniae AKPN 1073 (MDR, AG-resistant clinical isolate); test: murine neutropenic thigh model; type: in vivo; settings: two highest dosages; AKPN 1073, challenge 1.3×10^4 CFU; FIG. 3
Experimental: as §1

Q: How did the “bacterial load after 24 hours of treatment versus initial bacterial load” value [1] turn out when `CN[C@@H]1[C@@H](O)[C@@H](O[C@@H]2[C@@H](O)[C@H](O[C@H]3OC(CNCCO)=CC[C@H]3N)[C@@H](N)C[C@H]2NC(=O)[C@@H](O)CCN)OC[C@]1(C)O` [Example 1, 6′-(2-Hydroxy-ethyl)-1-(4-amino-2(S)-hydroxy-butyryl)-sisomicin] was run?
A: reduced to below the initial bacterial load

Q: And the “bacterial titers versus initial bacterial load (static level)” value (seven bacterial strains; all 7 strains)?
A: reducing bacterial titers back to or below the initial bacterial load

Q: And the “ED50 against gentamicin resistant strains” value (seven bacterial strains; gentamicin resistant strains)?
A: efficacious

Q: And the “ratio of in vivo efficacy to in vitro activity (ED50/MIC)” value (seven bacterial strains; in words)?
A: comparable to that of gentamicin

Q: What about the “in vivo efficacy (ED50) against strains susceptible to gentamicin” value (seven bacterial strains; strains susceptible to gentamicin, in words) of the same molecule?
A: comparable to gentamicin

Q: What about the ED50/MIC [2] of the same molecule?
A: 8.4

Q: And the ED50/MIC [3]?
A: 7.4

Q: And the “bacterial load after 24 hours of treatment versus initial bacterial load” value [4]?
A: reduced back to the level of the initial bacterial load

Q: And the MIC [5]?
A: 1 to 16 µg/mL (≈ 1.69 to 27 µM)

Q: What about the “bacterial titer after 24 hours of treatment versus initial bacterial load” value [6] of the same molecule?
A: reduced to below the initial bacterial load

Q: What about the MIC50 ([7]; read-out: MIC50) of the same molecule?
A: 0.5 µg/mL (≈ 0.844 µM)

Q: And the MIC90 ([7]; read-out: MIC90)?
A: 1 µg/mL (≈ 1.69 µM)

Q: And the MIC50 ([8]; Klebsiella pneumoniae, Total MDR K. pneumoniae isolates (n = 102), read-out: MIC50)?
A: 0.5 µg/mL (≈ 0.844 µM)

Q: And the MIC90 ([8]; Klebsiella pneumoniae, Total MDR K. pneumoniae isolates (n = 102), read-out: MIC90)?
A: 1 µg/mL (≈ 1.69 µM)

Q: And the MIC ([8]; Klebsiella pneumoniae, all MDR and KPC-Kp strains, read-out: MICs for all strains)?
A: ≤ 4 µg/mL

Q: What about the “MIC90 lower than that of amikacin” value ([8]; MDR and KPC-Kp strains) of the same molecule?
A: at least 5 twofold dilutions

Q: What about the “ED50/MIC P. aeruginosa” value (P. aeruginosa ATCC 27853) of the same molecule?
A: 4

Q: What about the “ED50/MIC E. Coli” value (E. coli ATCC 25922) of the same molecule?
A: <2

Q: And the “bacterial load after 24 hours of treatment versus initial bacterial load” value [9]?
A: reduced to below the level of the initial bacterial load
